From patent publication US20150299188A1, “HETEROCYCLIC COMPOUND” (priority 2012, published 2015)

system: FLAP (5-lipoxygenase activating protein); assay: In vitro binding test: displacement of [3H]-7-chloro-3-(5-((3-fluoropyridin-2-yl)methoxy)-2-methylphenyl)-3,4-dihydroquinazolin-2(1H)-one from Sf9 microsome fractions; design: species or system human and mouse; conditions: Sf9 microsome fractions expressing FLAP; 100% = radioligand binding with 10 μM sodium 3-(3-(tert-butylsulfanyl)-1-(4-chlorobenzyl)-5-isopropyl-1H-indol-2-yl)-2,2-dimethylpropanoate, 0% = DMSO; test compound concentration not given
Experimental: As an assay buffer, 100 mM Tris-HCl, pH 7.5, 140 mM NaCl, 2 mM EDTA, 0.5 mM dithiothreitol, 5% glycerol, 0.05% Tween20 was used. Sf9 microsome fractions expressing human and mouse FLAPs were dispensed by 50 μL to a 96-well plate at 2 μg/mL. Furthermore, a test compound (25 μL) diluted 4-fold of the final concentration with the assay buffer was added and mixed therewith, and the mixture was incubated at room temperature for 10 min. Furthermore, 120 nM [^3H]-7-chloro-3-(5-((3-fluoropyridin-2-yl)methoxy)-2-methylphenyl)-3,4-dihydroquinazolin-2(1H)-one was added by 25 μL, and mixed therewith, and the mixture was incubated at room temperature for 60 min. Thereafter, the cells were transferred to a 96-well GF/B Unifilter plate with a FilterMate cell harvester, and washed 3 times with a wash buffer (100 mM Tris-HCl pH 7.5, 0.05% Tween20, 200 μL) cooled to 4° C. The GF/B Unifilter plate was dried at 37° C., Microscint 0 was added and measured by TopCount NXT (PerkinElmer). As for the inhibitory activity, the inhibitory rate was calculated wherein the [^3H]-7-chloro-3-(5-((3-fluoropyridin-2-yl)methoxy)-2-methylphenyl)-3,4-dihydroquinazolin-2(1H)-one binding amount in the presence of 10 μM sodium 3-(3-(tert-butylsulfanyl)-1-(4-chlorobenzyl)-5-isopropyl-1H-indol-2-yl)-2,2-dimethylpropanoate was 100%, and the [^3H]-7-chloro-3-(5-((3-fluoropyridin-2-yl)methoxy)-2-methylphenyl)-3,4-dihydroquinazolin-2(1H)-one binding amount in the presence of DMSO was 0%.

inhibitory rate (%) | Compound
101% | Cc1cc2c(cc1N1Cc3c(cncc3C3CC3)NC1=O)OC(c1ncccc1F)CC2 (stereo not shown) [Example 26, 5-cyclopropyl-3-(2-(3-fluoropyridin-2-yl)-6-methyl-3,4-dihydro-2H-chromen-7-yl)-3,4-dihydropyrido[3,4-d]pyrimidin-2(1H)-one]
82% | CCc1nccc2c1CN(c1cc3c(cc1C)CCC(c1ncccc1F)O3)C(=O)N2 (stereo not shown) [Example 27, 5-ethyl-3-(2-(3-fluoropyridin-2-yl)-6-methyl-3,4-dihydro-2H-chromen-7-yl)-3,4-dihydropyrido[4,3-d]pyrimidin-2(1H)-one]
101% | Cc1cc2c(cc1N1Cc3c(ccnc3C(=O)NC3CC3)NC1=O)OC(c1ncccc1F)CC2 (stereo not shown) [Example 32, N-cyclopropyl-3-(2-(3-fluoropyridin-2-yl)-6-methyl-3,4-dihydro-2H-chromen-7-yl)-2-oxo-1,2,3,4-tetrahydropyrido[4,3-d]pyrimidine-5-carboxamide]
111% | CC(=O)c1nccc2c1CN(c1cc3c(cc1C)CCC(c1ncccc1F)O3)C(=O)N2 (stereo not shown) [Example 34, 5-acetyl-3-(2-(3-fluoropyridin-2-yl)-6-methyl-3,4-dihydro-2H-chromen-7-yl)-3,4-dihydropyrido[4,3-d]pyrimidin-2(1H)-one]
115% | Cc1cc2c(cc1N1Cc3c(Cl)ccnc3NC1=O)OC(c1ncccc1F)CC2 (stereo not shown) [Example 36, 5-chloro-3-(2-(3-fluoropyridin-2-yl)-6-methyl-3,4-dihydro-2H-chromen-7-yl)-3,4-dihydropyrido[2,3-d]pyrimidin-2(1H)-one]
107% | Cc1cc2c(cc1N1Cc3c(Cl)ncnc3NC1=O)OC(c1ncccc1F)CC2 (stereo not shown) [Example 37, 5-chloro-3-(2-(3-fluoropyridin-2-yl)-6-methyl-3,4-dihydro-2H-chromen-7-yl)-3,4-dihydropyrimido[4,5-d]pyrimidin-2(1H)-one]
94% | O=C1Nc2ccnc(C3CC3)c2CN1c1cc2c(cc1Cl)CCC(c1ncccc1F)O2 (stereo not shown) [Example 39, 3-(6-chloro-2-(3-fluoropyridin-2-yl)-3,4-dihydro-2H-chromen-7-yl)-5-cyclopropyl-3,4-dihydropyrido[4,3-d]pyrimidin-2(1H)-one]
108% | Cc1cc2c(cc1N1Cc3c(cc(Cl)nc3Cl)NC1=O)OC(c1ncccc1F)CC2 (stereo not shown) [Example 41, 5,7-dichloro-3-(2-(3-fluoropyridin-2-yl)-6-methyl-3,4-dihydro-2H-chromen-7-yl)-3,4-dihydropyrido[4,3-d]pyrimidin-2(1H)-one]
116% | Cc1cc2c(cc1N1Cc3c(cc(C4COC4)nc3C3CC3)NC1=O)OC(c1ncccc1F)CC2 (stereo not shown) [Example 42, 5-cyclopropyl-3-(2-(3-fluoropyridin-2-yl)-6-methyl-3,4-dihydro-2H-chromen-7-yl)-7-(oxetan-3-yl)-3,4-dihydropyrido[4,3-d]pyrimidin-2(1H)-one]
107% | Cc1cc2c(cc1N1Cc3cc(Cl)ncc3NC1=O)OC(c1ncccc1F)CC2 (stereo not shown) [Example 43, 6-chloro-3-(2-(3-fluoropyridin-2-yl)-6-methyl-3,4-dihydro-2H-chromen-7-yl)-3,4-dihydropyrido[3,4-d]pyrimidin-2 (1H)-one]
114% | Cc1cc2c(cc1N1Cc3cnc(Cl)cc3NC1=O)OC(c1ncccc1F)CC2 (stereo not shown) [Example 47, 7-chloro-3-(2-(3-fluoropyridin-2-yl)-6-methyl-3,4-dihydro-2H-chromen-7-yl)-3,4-dihydropyrido[4,3-d]pyrimidin-2(1H)-one]
120% | Cc1cc2c(cc1N1Cc3c(cc(C4CN(C(=O)n5ccnc5)C4)nc3C3CC3)NC1=O)OC(c1ncccc1F)CC2 (stereo not shown) [Example 49, 5-cyclopropyl-3-(2-(3-fluoropyridin-2-yl)-6-methyl-3,4-dihydro-2H-chromen-7-yl)-7-(1-(1H-imidazol-1-ylcarbonyl)azetidin-3-yl)-3,4-dihydropyrido[4,3-d]pyrimidin-2(1H)-one]
67% | Cc1cc2c(cc1N1Cc3c(C4CC4)ccnc3NC1=O)OC(c1ncccc1F)CC2 (stereo not shown) [Example 50, 5-cyclopropyl-3-(2-(3-fluoropyridin-2-yl)-6-methyl-3,4-dihydro-2H-chromen-7-yl)-3,4-dihydropyrido[2,3-d]pyrimidin-2(1H)-one]
115% | Cc1cc2c(cc1N1Cc3c(cc(C4CC4)nc3C3CC3)NC1=O)OC(c1ncccc1F)CC2 (stereo not shown) [Example 52, 5,7-dicyclopropyl-3-(2-(3-fluoropyridin-2-yl)-6-methyl-3,4-dihydro-2H-chromen-7-yl)-3,4-dihydropyrido[4,3-d]pyrimidin-2(1H)-one]

The remaining lines, values behind:

Compound | inhibitory rate (%)
O=C1Nc2ccnc(Cl)c2CN1c1ccc2c(c1)OC(c1ncccc1F)CC2 (stereo not shown) [Example 28, 5-chloro-3-(2-(3-fluoropyridin-2-yl)-3,4-dihydro-2H-chromen-7-yl)-3,4-dihydropyrido[4,3-d]pyrimidin-2(1H)-one] | 98%
Cc1cc2c(cc1N1Cc3cnccc3NC1=O)OC(c1ncccc1F)CC2 (stereo not shown) [Example 29, 3-(2-(3-fluoropyridin-2-yl)-6-methyl-3,4-dihydro-2H-chromen-7-yl)-3,4-dihydropyrido[4,3-d]pyrimidin-2(1H)-one] | 99%
CCOC(=O)c1nccc2c1CN(c1cc3c(cc1C)CCC(c1ncccc1F)O3)C(=O)N2 (stereo not shown) [Example 30, ethyl 3-(2-(3-fluoropyridin-2-yl)-6-methyl-3,4-dihydro-2H-chromen-7-yl)-2-oxo-1,2,3,4-tetrahydropyrido[4,3-d]pyrimidine-5-carboxylate] | 105%
Cc1cc2c(cc1N1Cc3c(ccnc3C(C)(C)O)NC1=O)OC(c1ncccc1F)CC2 (stereo not shown) [Example 33, 3-(2-(3-fluoropyridin-2-yl)-6-methyl-3,4-dihydro-2H-chromen-7-yl)-5-(2-hydroxypropan-2-yl)-3,4-dihydropyrido[4,3-d]pyrimidin-2(1H)-one] | 106%
O=C1Nc2ccnc(Cl)c2CN1c1cc2c(cc1C(F)(F)F)CCC(c1ncccc1F)O2 (stereo not shown) [Example 35, 5-chloro-3-(2-(3-fluoropyridin-2-yl)-6-(trifluoromethyl)-3,4-dihydro-2H-chromen-7-yl)-3,4-dihydropyrido[4,3-d]pyrimidin-2(1H)-one] | 93%
Cc1cc2c(cc1N1Cc3cn(CC(F)(F)F)c(=O)cc3NC1=O)OC(c1ncccc1F)CC2 (stereo not shown) [Example 38, 3-(2-(3-fluoropyridin-2-yl)-6-methyl-3,4-dihydro-2H-chromen-7-yl)-6-(2,2,2-trifluoroethyl)-4,6-dihydropyrido[4,3-d]pyrimidine-2,7(1H,3H)-dione] | 104%
Cc1cc2c(cc1N1Cc3cccnc3NC1=O)OC(c1ncccc1F)CC2 (stereo not shown) [Example 40, 3-(2-(3-fluoropyridin-2-yl)-6-methyl-3,4-dihydro-2H-chromen-7-yl)-3,4-dihydropyrido[2,3-d]pyrimidin-2(1H)-one] | 108%
Cc1cc2c(cc1N1Cc3ncccc3NC1=O)OC(c1ncccc1F)CC2 (stereo not shown) [Example 45, 3-(2-(3-fluoropyridin-2-yl)-6-methyl-3,4-dihydro-2H-chromen-7-yl)-3,4-dihydropyrido[3,2-d]pyrimidin-2(1H)-one] | 99%
Cc1cc2c(cc1N1Cc3c(ccnc3-c3ncco3)NC1=O)OC(c1ncccc1F)CC2 (stereo not shown) [Example 46, 3-(2-(3-fluoropyridin-2-yl)-6-methyl-3,4-dihydro-2H-chromen-7-yl)-5-(1,3-oxazol-2-yl)-3,4-dihydropyrido[4,3-d]pyrimidin-2(1H)-one] | 104%
Cc1cc2c(cc1N1Cc3cc(Cl)cnc3NC1=O)OC(c1ncccc1F)CC2 (stereo not shown) [Example 48, 6-chloro-3-(2-(3-fluoropyridin-2-yl)-6-methyl-3,4-dihydro-2H-chromen-7-yl)-3,4-dihydropyrido[2,3-d]pyrimidin-2(1H)-one] | 105%
Cc1cc2c(cc1N1Cc3c(ccnc3Cl)NC1=O)OC(c1ccccn1)CC2 (stereo not shown) [Example 51, 5-chloro-3-(6-methyl-2-(pyridin-2-yl)-3,4-dihydro-2H-chromen-7-yl)-3,4-dihydropyrido[4,3-d]pyrimidin-2(1H)-one] | 105%
O=C1Nc2c(Cl)cnc(Cl)c2CN1c1cc2c(cc1Cl)CCC(c1ncccc1F)O2 (stereo not shown) [Example 53, 5,8-dichloro-3-(6-chloro-2-(3-fluoropyridin-2-yl)-3,4-dihydro-2H-chromen-7-yl)-3,4-dihydropyrido[4,3-d]pyrimidin-2(1H)-one] | 103%
O=C1Nc2c(ccnc2Cl)CN1c1cc2c(cc1Cl)CCC(c1ncccc1F)O2 (stereo not shown) [Example 54, 8-chloro-3-(6-chloro-2-(3-fluoropyridin-2-yl)-3,4-dihydro-2H-chromen-7-yl)-3,4-dihydropyrido[3,4-d]pyrimidin-2(1H)-one] | 115%
COCCN1C(=O)N(c2cc3c(cc2Cl)CCC(c2ncccc2F)O3)Cc2c1ccnc2Cl (stereo not shown) [Example 55, 5-chloro-3-(6-chloro-2-(3-fluoropyridin-2-yl)-3,4-dihydro-2H-chromen-7-yl)-1-(2-methoxyethyl)-3,4-dihydropyrido[4,3-d]pyrimidin-2(1H)-one] | 106%
